Converted amounts (≈) assume the structure as drawn. Structures can show the parent of a compound that is named as a salt.
Tests used:
[1] = Cyclic voltammetry / linear sweep voltammetry, electrochemical parameters; format: physicochemical; conditions: for Peak-to-peak separation ΔEp: 100 mV/s, third cycle; for E^0′ apparent standard redox potential / E1/2 half-wave potential: 5 mM, pH 14, 1 M KOH; for E1/2 half-wave potential: RDE; for k^0′O × 10^−2 apparent heterogeneous rate constant: Gileadi's equation; for DO × 10^−6 diffusion coefficient: Randles-Sevcik
Description: Cyclic voltammetry experiments were performed at a 100 mV/s scan rate for compounds M3CH, D3CH, D4CH, M3SH, D3SH, M4SH and D4SH in solution at pH 13 (KOH 0.1 M) or pH 14 (KOH 1 M).
The electrochemical experiments were conducted on an electrochemical working station (BioLogic Science Instruments VSP) at 25° C. using a three-electrodes electrochemical cell, where a Pt wire was employed at the counter electrode (CE), an Ag/AgCl/KCl saturated electrode immerged in a 1 M KOH solution protected from the cell by a porous frit glass served as the reference electrode (RE) and a rotating disc electrode (RDE) mounted with a glassy carbon (GC, 7.069 mm^2) disk was used as the working electrode (WE), respectively. The potential was reported relative to the normal hydrogen electrode (NHE), which was converted from the Ag/AgCl reference electrode (0.230 V versus NHE). The ohmic drop between the WE and RE is determined by current interrupt experiments and leads to a value close to 0.7069 Ω·cm^2. All cyclic voltammetry experiments were conducted by alleviating most of this resistance (85%) using the potentiostat manual ohmic drop compensation. Before each electrochemical measurement, the GC disk electrode was polished using SiC P4000 foil.
Each recorded cyclic voltammetry of the reduction and the oxidation process of a compound at a given scan rate is analyzed by measuring ip,a=anodic peak current; ip,c=cathodic peak current; v=scan rate; Ep,a=anodic peak potential; Ep,c=cathodic peak potential; ΔEp=Ep,a−Ep,c; the apparent standard redox potential E^0′=[…].
Linear sweep voltammetry (LSV) using the RDE at various rotation speed (400 up to 1 000 RPM) were performed to determine the averaged half-wave potential E1/2.
The oxidation (DO) and the reduction (DR) diffusion coefficients were calculated using Randles-Sevcik (RS) equation ip=0.4463·n^3/2·F^3/2·A·C·v^1/2·D^1/2·R^−1/2·T^−1/2=Cye·v^1/2·D^1/2, n=number of electrons exchanged during the redox process; F=faradaic number=96485 C·mol^−1; A=electrode active surface; C=redox active molecule concentration; R=gas constant=8.314 J·K^−1·mol^−1; T=bulk temperature=299 K. The experiments are conducted by cyclic voltammetry at various scan rates ranging from 10 mV/s up to 20 V/s.
A graphic of lip,al and lip,cl=f(Cte×v^1/2) is plotted, if the redox process is reversible and diffusion controlled, the peak current should be proportional to the square root of the scan rate. The diffusion coefficients (oxidation and reduction) are then calculated by taking the square of the regression lines slopes. Diffusion coefficients (oxidation and reduction processes) are evaluated by plotting the peak current versus a constant multiplied by the square root of the scan rate. The plots regression line gives a straight line with perfect correlation coefficient (100%) confirming that the redox process is reversible and diffusion controlled. The square of each slope gives the associated coefficient diffusion in cm^2 s^−1.
The apparent heterogeneous rate constant during oxidation (k^0′O)/and reduction (k^0′R) process was calculated using Gileadi's equation (C. Rüssel, W. Jaenicke, Electrochimica Acta, Vol 27, N° 12, 1745-1750, 1982) log k^0′=−0.48α+0.52 +log[(nFαvcD)/(2.303RT)]^1/2; vc is the critical scan rate, it is calculated by plotting the peak potentials versus the logarithm of the scan rates, and is more precise when a very wide range of scan rates is used, which is the case here (0.010 up to 20 V·s^−1), it is determined at the x-axis of the point of intersection of the regression lines drawn at low and high scan rates; a is the transfer coefficient that is supposed to be close to 0.5 for all presented compounds.
Peak-to-peak separation ΔEp values were determined from the third cycle of each cyclic voltammogram (FIGS. 1 and 2) and are gathered in the following table 4.
The standard redox process reversibility evaluation is performed in diluted state, at 5 mM of concentration, at pH 14 buffered with 1 M of KOH. […]

[2] = comparative redox active material in negolytes; cited from earlier work
[3] = Cycling tests of redox flow battery cells in constant power cycling mode
[4] = format: physicochemical; conditions: pH 13.5
Description: (§1) Post-cycling analyses were carried out using ^1H NMR spectroscopy electrolytes. […] Taking into account the electrolyte-membrane contact time during this cycling test and the NMR spectroscopy resolution, the permeability coefficient of compound D4CH can be estimated below 10^−12 cm^2/s or less than 1% capacity loss per year of electrolyte-membrane contact.
as §1, with “M4SH” for “D4CH”

[5] = Solubility in aqueous solution at various pH by shake-flask method; conditions: thermodynamic from solid
Description: An aqueous solution (containing either KCl 1M, KOH 1M or H2SO4 1M) is added over 100 mg of compound by 20 μL portions until complete solubilization. We obtain an approximate range of solubility values calculated as following:
Smax˜(m/M)/V; m=mass of evaluated compound (g); M=molar mass of evaluated compound (g·mol^−1); V=added volume (L).

[6] = 0.3 M AQ-2,7-DS, pH 13.0, Battery no 3, 60 mL, flowrate 0.5 mL/min/cm^2
[7] = 0.3 M AQ-2,7-DS, pH 13.0, Battery no 3, 60 mL, flowrate 5 mL/min/cm^2
[8] = 0.3 M AQ-2,7-DS, pH 13.0, Battery no 4, 120 mL, flowrate 0.5 mL/min/cm^2
[9] = 0.3 M AQ-2,7-DS, pH 13.0, Battery no 4, 120 mL, flowrate 5 mL/min/cm^2
[10] = extrapolated from 5 days, flowrate 0.5 mL/min/cm^2, negolyte 120/120/40/370 mL
[11] = 0.2 M ARS, pH 14.0, Battery no 1, 60 mL, flowrate 0.5 mL/min/cm^2
[12] = 0.2 M ARS, pH 14.0, Battery no 1, 60 mL, flowrate 5 mL/min/cm^2
[13] = 0.2 M ARS, pH 14.0, Battery no 2, 120 mL, flowrate 0.5 mL/min/cm^2
[14] = 0.2 M ARS, pH 14.0, Battery no 2, 120 mL, flowrate 5 mL/min/cm^2
[15] = 0.3 M Complexone, pH 13.7, Battery no 5, 40 mL, flowrate 0.5 mL/min/cm^2
[16] = 0.3 M Complexone, pH 13.7, Battery no 5, 40 mL, flowrate 5 mL/min/cm^2

SMILES | Peak-to-peak separation ΔEp ([1]; pH 13 (KOH 0.1 M)) [mV] | Peak-to-peak separation ΔEp ([1]; pH 14 (KOH 1 M)) [mV] | Solubility, solution at pH 0 (H2SO4 1M) [M] | Solubility, solution at pH 14 (KOH 1M) [M] | DO × 10^−6 [2] | k^0′O × 10^−2 [2] | other results
O=C(O)CCCOc1ccc(OCCCC(=O)O)c2c1C(=O)c1ccccc1C2=O [Compound D3CH] | 267 | 46 | 0.30 | 0.42 |  |  | 
O=C1c2ccc(OCCCP(=O)(O)O)cc2C(=O)c2ccc(OCCCP(=O)(O)O)cc21 [DPPEAQ] |  |  |  |  | 1.37 × 10^−6 cm^2/s |  | 
O=C1c2ccc(S(=O)(=O)O)cc2C(=O)c2cc(S(=O)(=O)O)ccc21 [AQ-2,7-DS, Anthraquinone-2,7-disulfonic acid disodium salt] |  |  |  |  | 3.8 × 10^−6 cm^2/s | 0.72 × 10^−2 cm/s | Stability in cycles (−20%) [3, 6]: 563 cycles; Stability in days (−20%) [3, 6]: 27.1 days; Stability in cycles (−20%) [3, 7]: 378 cycles; Stability in days (−20%) [3, 7]: 21.1 days; Stability in cycles (−20%) [3, 8]: 0 cycles; Stability in days (−20%) [3, 8]: 0.0 days; Stability in cycles (−20%) [3, 9]: 173 cycles; Stability in days (−20%) [3, 9]: 19.6 days; behaviour after decreasing the flowrate down to 0.5 mL/min/cm^2 ([3]; constraints close to real systems, 0.3 M, pH 13.0): precipitates directly; Stability in cycles (−20%) [3, 10]: 0 cycles; Stability in days (−20%) [3, 10]: 0.0 days
C[N+](C)(C)CCC[n+]1ccc(-c2cc[n+](CCC[N+](C)(C)C)cc2)cc1.[Cl-].[Cl-].[Cl-].[Cl-] [BTMAP-Vi] |  |  |  |  | 3.3 × 10^−6 cm^2/s | 2.2 × 10^−2 cm/s | 
O=C(O)CCCOc1ccc2c(c1)C(=O)c1ccc(OCCCC(=O)O)cc1C2=O [DBEAQ] |  |  |  |  | 1.58 × 10^−6 cm^2/s | 0.70 × 10^−2 cm/s | 
Cc1cc2nc3c(=O)[nH]c(=O)nc-3n(C[C@H](O)[C@H](O)[C@H](O)COP(=O)([O-])O)c2cc1C.[Na+] [Flavine FMN-Na] |  |  |  |  | 1.3 × 10^−6 cm^2/s | 0.53 × 10^−2 cm/s | 
O=C(O)CCCCOc1ccc(OCCCCC(=O)O)c2c1C(=O)c1ccccc1C2=O [Compound D4CH] | 328 | 32 | 0.00 | 0.46 |  |  | compound degradation in negolyte after cycling [4]: No traces of compound D4CH degradation were visible
O=C1c2ccccc2C(=O)c2c(OCCCS(=O)(=O)O)ccc(O)c21 [Compound M3SNa] |  |  |  |  |  |  | solubility ([5]; aqueous H2SO4 1M solution, pH 0, aqueous buffer): 460 mM (≈ 167 mg/mL); solubility ([5]; unbuffered aqueous KCl 1M solution, saline or isotonic): 320 mM (≈ 116 mg/mL)
O=C1c2ccccc2C(=O)c2c(OCCCCS(=O)(=O)[O-])ccc(O)c21.[Na+] [Compound M4SNa] |  |  | 0.37 | 0.88 |  |  | 
O=C1c2ccccc2C(=O)c2c(OCCCS(=O)(=O)O)ccc(OCCCS(=O)(=O)O)c21 [Compound D3SH] | 246 | 40 | 0.73 | 0.92 |  |  | 
O=C1c2ccccc2C(=O)c2c1cc(S(=O)(=O)O)c(O)c2O [ARS, 1,2-Dihydroxyanthraquinone-3-sulfonic acid sodium salt] |  |  |  |  |  |  | Stability in cycles (−20%) [3, 11]: 81 cycles; Stability in days (−20%) [3, 11]: 3.5 days; Stability in cycles (−20%) [3, 12]: 138 cycles; Stability in days (−20%) [3, 12]: 6.4 days; Stability in cycles (−20%) [3, 13]: 45 cycles; Stability in days (−20%) [3, 13]: 3.8 days; Stability in cycles (−20%) [3, 14]: 62 cycles; Stability in days (−20%) [3, 14]: 6.6 days; Stability in cycles (−20%) [3, 10]: 45 cycles; Stability in days (−20%) [3, 10]: 3.5 days
O=C1c2ccccc2C(=O)c2c(OCCCCS(=O)(=O)O)ccc(O)c21 [Compound M4SH] | 97 | 39 |  | 0.46 |  |  | E^0′ apparent standard redox potential [1]: −0.494 V vs NHE; E1/2 half-wave potential [1]: −0.494 V vs NHE; k^0′O × 10^−2 apparent heterogeneous rate constant [1]: 3.1 × 10^−2 cm/s; DO × 10^−6 diffusion coefficient [1]: 5.8 × 10^−6 cm^2/s; compound degradation in negolyte after cycling [4]: no traces of compound M4SH degradation were visible
O=C(O)CN(CC(=O)O)Cc1cc2c(c(O)c1O)C(=O)c1ccccc1C2=O [Complexone, 3,4-Dihydroxyanthraquinon-2-yl-methylimino-diacetic acid] |  |  |  |  |  |  | Stability in cycles (−20%) [3, 15]: 63 cycles; Stability in days (−20%) [3, 15]: 3.2 days; Stability in cycles (−20%) [3, 16]: 69 cycles; Stability in days (−20%) [3, 16]: 3.4 days; Stability in cycles (−20%) [3, 10]: 74 cycles; Stability in days (−20%) [3, 10]: 3.3 days
O=C1c2ccccc2C(=O)c2c(OCCCS(=O)(=O)[O-])ccc(OCCCS(=O)(=O)[O-])c21.[Na+].[Na+] [Compound D3SNa] |  |  | 0.15 | 0.44 |  |  | 
O=C1c2ccccc2C(=O)c2c(OCCCS(=O)(=O)O)ccc(O)c21 [Compound M3SH] | 97 | 40 | 0.31 | 0.23 |  |  | E^0′ apparent standard redox potential [1]: −0.489 V vs NHE; E1/2 half-wave potential [1]: −0.489 V vs NHE; k^0′O × 10^−2 apparent heterogeneous rate constant [1]: 3.1 × 10^−2 cm/s; DO × 10^−6 diffusion coefficient [1]: 4.6 × 10^−6 cm^2/s
O=C1c2ccc(O)cc2C(=O)c2ccc(O)cc21 [DHAQ] |  |  |  |  | 4.8 × 10^−6 cm^2/s | 0.70 × 10^−2 cm/s | 
O=C1c2ccccc2C(=O)c2c(OCCCCS(=O)(=O)O)ccc(OCCCCS(=O)(=O)O)c21 [Compound D4SH] | 390 | 32 | 0.91 | 0.78 |  |  | 
O=C1C=C(O)C(=O)C=C1O [DHBQ] |  |  |  |  | 3.66 × 10^−6 cm^2/s | 0.21 × 10^−2 cm/s | 
O=C1c2ccccc2C(=O)c2c(O)ccc(O)c21 [Quinizarin, quinizarin] |  |  |  |  |  |  | solubility ([5]; aqueous KOH 1M solution, pH 14, aqueous buffer): < 50 mM

— US12438175B2, “Aqueous organic-based electrolyte for redox flow battery” (KEMIWATT, priority 2019, dated 2025)
